Experimental data: ChEMBL document CHEMBL4342495, “Structure-Activity Relationship and Anticancer Profile of Second-Generation Anti-MRSA Synthetic Retinoids” (ACS Med Chem Lett, 2020)
Values after ≈ are worked out from the molar mass of the structure shown.

Experiments:
HepG2 = assay: Cytotoxicity against human HepG2 cells assessed as reduction in cell viability measured after 24 hrs by WST1 assay; type: functional; conditions: HepG2, 24 h, read-out: LC50 (the source's name)
[1] = Hemolytic activity against human erythrocytes measured after 1 hr; type: ADME, cell-based, Erythrocyte
Staphylococcus aureus [2] = assay: Antibacterial activity against methicillin-resistant Staphylococcus aureus MW2 BAA 1707 assessed as growth inhibition by standard microdilution method; type: functional
HeLa = assay: Cytotoxicity against human HeLa cells assessed as reduction in cell viability measured after 24 hrs by WST1 assay; type: functional; conditions: read-out: LC50 (the source's name)
Staphylococcus aureus [3] = assay: Antibacterial activity against vancomycin-resistant Staphylococcus aureus VRS1 assessed as growth inhibition by standard microdilution method; type: functional
Staphylococcus aureus [4] = assay: Antibacterial activity against methicillin-resistant Staphylococcus aureus JE2 assessed as growth inhibition by standard microdilution method; type: functional
Staphylococcus aureus [5] = assay: Antibacterial activity against methicillin-resistant Staphylococcus aureus ATCC 33591 assessed as growth inhibition by standard microdilution method; type: functional
Staphylococcus aureus [6] = assay: Antibacterial activity against methicillin-resistant Staphylococcus aureus MW2 assessed as growth inhibition; type: functional
Staphylococcus aureus [7] = assay: Antibiofilm activity against methicillin-resistant Staphylococcus aureus MW2 assessed as reduction in number of viable cells by measuring colony forming units at 16 fold MIC relative to control; type: functional

| SMILES | CC50 (HepG2) | HC50 at 1 h [1] [µg/mL] | MIC (Staphylococcus aureus [2]) [µg/mL] | CC50 (HeLa) [µg/mL] | MIC (Staphylococcus aureus [3]) [µg/mL] | MIC (Staphylococcus aureus [4]) [µg/mL] | MIC (Staphylococcus aureus [5]) [µg/mL] | MIC (Staphylococcus aureus [6]) [µg/mL] | inhibition (INH) (Staphylococcus aureus [7]) [%] |
| --- | --- | --- | --- | --- | --- | --- | --- | --- | --- |
| CCCCCCCC=Cc1cc(-c2ccc3cc(CO)ccc3c2)ccc1O | 5.51 µg/mL | > 64 | > 64 |  |  |  |  |  |  |
| CCCCCCCCCc1cc(-c2ccc3cc(C(=O)O)ccc3c2)ccc1O | 1.73 µg/mL | 22.8 | 4 |  |  |  |  |  |  |
| CCCCCCCc1cc(-c2ccc3cc(C(=O)O)ccc3c2)ccc1O | 1.89 µg/mL | > 64 | 4 | 0.6 (≈ 1.66 µM) |  |  |  |  |  |
| CCCCCCCc1cc(-c2ccc3cc(CO)ccc3c2)ccc1O | 3.61 µg/mL | > 64 | 4 |  |  |  |  |  |  |
| CC12CC3CC(C)(C1)CC(c1cc(-c4ccc5cc(CO)ccc5c4)ccc1O)(C3)C2 | 11.7 µg/mL | > 64 | 8 |  |  |  |  |  |  |
| Cc1cc(-c2ccc3cc(CO)ccc3c2)ccc1O | > 32 µg/mL | > 64 | > 64 |  |  |  |  |  |  |
| CC(C)(C)c1cc(-c2ccc3cc(CO)ccc3c2)ccc1O | 7.5 µg/mL | > 64 | 8 |  |  |  |  |  |  |
| CCCC=Cc1cc(-c2ccc3cc(C(=O)O)ccc3c2)ccc1O | 5.38 µg/mL | > 64 | 16 |  |  |  |  |  |  |
| CCCCCc1cc(-c2ccc3cc(CO)ccc3c2)ccc1O | 3.27 µg/mL | > 64 | 4 |  |  |  |  |  |  |
| Cc1cc(-c2ccc3cc(C(=O)O)ccc3c2)ccc1O | > 32 µg/mL | > 64 | > 64 |  |  |  |  |  |  |
| CCCCCc1cc(-c2ccc3cc(C(=O)O)ccc3c2)ccc1O | 3.26 µg/mL | > 64 | 8 |  |  |  |  |  |  |
| CCCCCC=Cc1cc(-c2ccc3cc(CO)ccc3c2)ccc1O | 4.19 µg/mL | > 64 | 4 |  |  |  |  |  |  |
| OCc1ccc2cc(-c3ccc(O)cc3)ccc2c1 | 1700 nM | > 64 | > 64 |  |  |  |  |  |  |
| O=C(O)c1ccc2cc(-c3ccc(O)cc3)ccc2c1 | > 32 µg/mL | > 64 | > 64 |  |  |  |  |  |  |
| CCCC=Cc1cc(-c2ccc3cc(CO)ccc3c2)ccc1O | 3.89 µg/mL | > 64 | 4 |  |  |  |  |  |  |
| CCCCCC=Cc1cc(-c2ccc3cc(C(=O)O)ccc3c2)ccc1O | 2.44 µg/mL | 45.4 | 8 |  |  |  |  |  |  |
| CC12CC3CC(C)(C1)CC(c1cc(-c4ccc5cc(C(=O)O)ccc5c4)ccc1O)(C3)C2 | 1.84 µg/mL | 15.2 | 2 | 0.49 (≈ 1.15 µM) | 2 | 2 | 2 |  |  |
| CCCCCCCC=Cc1cc(-c2ccc3cc(C(=O)O)ccc3c2)ccc1O | 2.6 µg/mL | 51.5 | 4 |  |  |  |  |  |  |
| CCCCCCCCCc1cc(-c2ccc3cc(CO)ccc3c2)ccc1O | 7.25 µg/mL | > 64 | > 64 |  |  |  |  |  |  |
| CC(C)(C)c1cc(-c2ccc3cc(C(=O)O)ccc3c2)ccc1O | 9.8 µg/mL | > 64 | 16 |  |  |  |  |  |  |
| O=C(O)c1ccc2cc(-c3ccc(O)c(C45CC6CC(CC(C6)C4)C5)c3)ccc2c1 [O-DEMETHYLATED ADAPALENE] | 1.02 µg/mL | > 64 | 1 | 0.21 (≈ 0.527 µM) | 1 | 1 | 1 | 2 (≈ 5.02 µM) | 90 |
| CN[C@H](CC(C)C)C(=O)N[C@H]1C(=O)N[C@@H](CC(N)=O)C(=O)N[C@H]2C(=O)N[C@H]3C(=O)N[C@H](C(=O)N[C@H](C(=O)O)c4cc(O)cc(O)c4-c4cc3ccc4O)[C@H](O)c3ccc(c(Cl)c3)Oc3cc2cc(c3O[C@@H]2O[C@H](CO)[C@@H](O)[C@H](O)[C@H]2O[C@H]2C[C@](C)(N)[C@H](O)[C@H](C)O2)Oc2ccc(cc2Cl)[C@H]1O [VANCOMYCIN] |  |  |  |  | > 64 |  |  |  |  |
